Results published in ChEMBL document CHEMBL4483862, “Open-source discovery of chemical leads for next-generation chemoprotective antimalarials” (2018).

Test system: Plasmodium berghei
Test: Luciferase/luciferin-expressing antifolate-resistant parasites were used to infect a culture of HepG2 cells that were pre-incubated with compounds. Infected hepatocytes emit light due to the luciferase reaction. Assay results are presented as the percent inhibition of light emission compared to control. […]
Assay type: functional
Conditions: sporozoite; for IC90: read-out: LUCIFERASE INFECTION ASSAY - IC90
[1] = read-out: LUCIFERASE INFECTION ASSAY - IC50

SMILES	IC90 [µM]	IC50 [1] [µM]	further results
Cc1ccc(Cn2nc(C)c(/C=C/C(=O)N3CCN(S(=O)(=O)c4cccs4)CC3)c2C)cc1	> 10	–	IC50 (HEPG2TOX_HILL_SLOPE 1.48, HEPG2TOX_R_SQUARED 0.941, PBLUC_HILL_SLOPE 12.2, PBLUC_R_SQUARED 0.462, read-out: LUCIFERASE INFECTION ASSAY - IC50): 9.53 µM
O=C(Nc1ccc(Cl)cc1)Nc1ccccc1SCc1ncc(C(F)(F)F)cc1Cl	> 6.99	–	IC50 (HEPG2TOX_HILL_SLOPE 7.43, HEPG2TOX_R_SQUARED 0.87, PBLUC_HILL_SLOPE 2.47, PBLUC_R_SQUARED 0.266, read-out: LUCIFERASE INFECTION ASSAY - IC50): 4.63 µM
CSc1nnc(-c2csc(S(=O)(=O)Oc3cc(Cl)cc(Cl)c3)c2)n1C	> 7.56	> 7.56	–
CC(C)CC(=O)NNc1ccnc2cc(Cl)ccc12	4.29	–	IC50 (HEPG2TOX_HILL_SLOPE 0.439, HEPG2TOX_R_SQUARED 0.287, PBLUC_HILL_SLOPE 11, PBLUC_R_SQUARED 0.716, read-out: LUCIFERASE INFECTION ASSAY - IC50): 3.51 µM
N=C1C(c2nc(-c3ccccc3)cs2)C(=O)CN1c1ccc2c(c1)OCCO2 (stereo unspecified)	> 8.43	–	IC50 (HEPG2TOX_HILL_SLOPE 0.297, HEPG2TOX_R_SQUARED 0.47, PBLUC_HILL_SLOPE 1.65, PBLUC_R_SQUARED 0.172, read-out: LUCIFERASE INFECTION ASSAY - IC50): > 8.43 µM
Cc1nc(C(=N)NOC(=O)c2c(-c3c(Cl)cccc3Cl)noc2C)cs1	1.24	–	IC50 (HEPG2TOX_HILL_SLOPE 7.11, HEPG2TOX_R_SQUARED 0.0768, PBLUC_HILL_SLOPE 8.1, PBLUC_R_SQUARED 0.284, read-out: LUCIFERASE INFECTION ASSAY - IC50): 0.945 µM
Cc1ccc2nc(NC(=O)c3ccccc3)c(C(=O)NC3CCCCC3)n2c1	3.2	–	IC50 (FFLUC_HILL_SLOPE 0.276, FFLUC_R_SQUARED 0.15, HEPG2TOX_HILL_SLOPE 1.74, HEPG2TOX_R_SQUARED 0.886, PBLUC_HILL_SLOPE 12, PBLUC_R_SQUARED 0.694, read-out: LUCIFERASE INFECTION ASSAY - IC50): 2.66 µM
Cc1c(C(=O)OC(C(=O)c2ccccc2)c2ccccc2)sc2ncn(C)c(=O)c12 (stereo unspecified)	8.68	–	IC50 (PBLUC_HILL_SLOPE 24.2, PBLUC_R_SQUARED 0.462, read-out: LUCIFERASE INFECTION ASSAY - IC50): 7.93 µM
CC(C)c1ccc(NC(=O)C2=CN3CCN(Cc4ccccc4)C(=O)N=C3O2)cc1	> 10	–	IC50 (FFLUC_HILL_SLOPE 11.9, FFLUC_R_SQUARED 0.0164, read-out: LUCIFERASE INFECTION ASSAY - IC50): > 10 µM
Cc1cc(C(=O)Nc2ccc(Cl)cc2)c(C)n1-c1ccccc1	0.729	–	IC50 (PBLUC_HILL_SLOPE 1.26, PBLUC_R_SQUARED 0.88, read-out: LUCIFERASE INFECTION ASSAY - IC50): 0.128 µM
CC1(C)CN=C(N(C(=O)Nc2ccc(Cl)c(Cl)c2)c2ccccc2)S1	> 8.37	> 8.37	–
Cc1cccc(C(=O)Nc2nc3ccccn3c2C(=O)NC(C)C)c1	> 9.81	–	IC50 (HEPG2TOX_HILL_SLOPE 2.5, HEPG2TOX_R_SQUARED 0.601, PBLUC_HILL_SLOPE 2.39, PBLUC_R_SQUARED 0.0938, read-out: LUCIFERASE INFECTION ASSAY - IC50): 6.28 µM
COc1ccc(/C=C2\CCCc3c2nc2ncnn2c3-c2ccc(OC)cc2)cc1	> 10	> 10	–
CCOc1cc2c(cc1CNC(=O)c1cccc(NC(=O)c3cccs3)c1)OC(C)C2 (stereo unspecified)	> 10	–	IC50 (PBLUC_HILL_SLOPE 17.6, PBLUC_R_SQUARED 0.496, read-out: LUCIFERASE INFECTION ASSAY - IC50): 9.52 µM
Cc1ccc(-n2c(SCC(=O)c3ccc4c(c3)OCO4)nnc2N2CCCC2)cc1	> 10	> 10	–
CCCn1c(CCC(=O)OCC(=O)c2ccc(NC(=O)CC(C)C)cc2)nc2cc(S(=O)(=O)N3CCCC3)ccc21	> 10	> 10	–
CC(C)n1ncc2c(C(=O)N3CCN(CC(=O)N4CCCC4)CC3)cc(-c3ccccc3)nc21	5.42	–	IC50 (PBLUC_HILL_SLOPE 8.22, PBLUC_R_SQUARED 0.426, read-out: LUCIFERASE INFECTION ASSAY - IC50): 4.15 µM
Cn1c(-c2ccsc2)cc2c(Nc3ccc(Oc4ccccc4)cc3)nccc21	3.44	–	IC50 (HEPG2TOX_HILL_SLOPE 11.7, HEPG2TOX_R_SQUARED 0.553, PBLUC_HILL_SLOPE 10.6, PBLUC_R_SQUARED 0.752, read-out: LUCIFERASE INFECTION ASSAY - IC50): 2.8 µM
O=c1c2cc(Br)cc(Br)c2nc(-c2ccccc2)n1-c1cc(C(F)(F)F)cc(C(F)(F)F)c1	> 5.57	> 5.57	–
Cc1cc(C)cc(Nc2nc(=O)c(Cc3ccc(Cl)cc3)n[nH]2)c1	8.45	–	IC50 (FFLUC_HILL_SLOPE 1.04, FFLUC_R_SQUARED 0.238, PBLUC_HILL_SLOPE 2.61, PBLUC_R_SQUARED 0.421, read-out: LUCIFERASE INFECTION ASSAY - IC50): 3.64 µM
Nc1ncc(-c2ccc(-c3ccccc3)cc2F)cc1-c1ccccc1F	> 9.21	–	IC50 (PBLUC_HILL_SLOPE 34.9, PBLUC_R_SQUARED 0.254, read-out: LUCIFERASE INFECTION ASSAY - IC50): 8.92 µM
CC(C)NC(=O)NCc1ccc(C(=O)OCC(=O)C(C#N)=C2Nc3ccccc3N2)cc1	6.88	–	IC50 (PBLUC_HILL_SLOPE 2.52, PBLUC_R_SQUARED 0.605, read-out: LUCIFERASE INFECTION ASSAY - IC50): 2.88 µM

SMILES	IC90 [µM]	IC50 [1] [µM]	further results
Cc1ccc(S(=O)(=O)CCN2CCC(C#N)CC2)cc1	> 11.3	> 11.3	–
Cc1cc(C(O)(C(F)(F)F)C(F)(F)F)c(C)n1-c1ccc(N(C)C)cc1	> 10	–	IC50 (HEPG2TOX_HILL_SLOPE 5.45, HEPG2TOX_R_SQUARED 0.58, PBLUC_HILL_SLOPE 4.49, PBLUC_R_SQUARED 0.403, read-out: LUCIFERASE INFECTION ASSAY - IC50): 7.53 µM
Cc1ccsc1/C=N/Nc1ccc([N+](=O)[O-])cc1S(=O)(=O)Nc1ccc(Cl)cc1	3.77	–	IC50 (HEPG2TOX_HILL_SLOPE 2.24, HEPG2TOX_R_SQUARED 0.991, PBLUC_HILL_SLOPE 12.9, PBLUC_R_SQUARED 0.191, read-out: LUCIFERASE INFECTION ASSAY - IC50): 3.18 µM
Cn1nc(C(=O)NCC(c2cccs2)N2CCCC2)c2ccccc2c1=O (stereo unspecified)	> 10	> 10	–
CCOc1ccc(Oc2ccc(S(=O)(=O)NC(C)c3ccncc3)cc2)cc1 (stereo unspecified)	4.85	0.559	–
COc1ccc(OC)c(CCNc2nc3cnc(-c4cncnc4)cc3n2C)c1	> 10	–	IC50 (HEPG2TOX_HILL_SLOPE 2.17, HEPG2TOX_R_SQUARED 0.775, PBLUC_HILL_SLOPE 2.72, PBLUC_R_SQUARED 0.417, read-out: LUCIFERASE INFECTION ASSAY - IC50): 4.95 µM
COCCn1c(SC(C)C(=O)c2ccc(Br)cc2)nnc1-c1cccc(C)c1 (stereo unspecified)	> 10	> 10	–
CC(C)CN1C(=O)N(CCCc2cccnc2)C(=O)C12CCN(C(C)CCc1ccccc1)CC2 (stereo unspecified)	> 6.92	–	IC50 (PBLUC_HILL_SLOPE 2.19, PBLUC_R_SQUARED 0.623, read-out: LUCIFERASE INFECTION ASSAY - IC50): 3.61 µM
Oc1cccc(-c2cnc3ccc(-c4cccc(C(F)(F)F)c4)nn23)c1	> 10	–	IC50 (PBLUC_HILL_SLOPE 3.46, PBLUC_R_SQUARED 0.251, read-out: LUCIFERASE INFECTION ASSAY - IC50): 6.43 µM
CCNC(=O)c1nn(CC2CC2)c2c1CN(C(=O)c1cc(-c3ccccc3F)n[nH]1)CC2	4.07	–	IC50 (PBLUC_HILL_SLOPE 5.13, PBLUC_R_SQUARED 0.551, read-out: LUCIFERASE INFECTION ASSAY - IC50): 2.65 µM
COc1ccc(C(=O)C2CCN(C(=O)c3cnc(C)cn3)CC2)cc1	> 10	> 10	–
CC(C)(C)c1cnc(CSc2nc3ccc(Cl)cc3[nH]2)o1	> 10	–	IC50 (HEPG2TOX_HILL_SLOPE 0.519, HEPG2TOX_R_SQUARED 0.541, PBLUC_HILL_SLOPE 2.57, PBLUC_R_SQUARED 0.344, read-out: LUCIFERASE INFECTION ASSAY - IC50): 5.12 µM
CCC(C)c1ccc(NC(=O)CN(Cc2ccccc2)S(=O)(=O)c2ccc(C)c(C)c2)cc1 (stereo unspecified)	> 10	> 10	–
CC(Oc1ccccc1[N+](=O)[O-])C(=O)N(c1nccs1)C1CCCCC1 (stereo unspecified)	> 10	> 10	–
Cc1nc2ccccn2c1C(=O)N/N=C/c1ccccc1O	> 11.2	10.1	–
CC(=O)Nc1ccc(S(=O)(=O)Oc2ccc(C)cc2[N+](=O)[O-])cc1	> 9.42	> 9.42	–
COc1ccc(OCCSCc2cc(=O)n3c4c(sc3n2)CCCC4)cc1	> 10	> 10	–
CC(=O)c1cccc(-c2cnc3ccc(-c4cccc(Cl)c4)nn23)c1	8.63	–	IC50 (HEPG2TOX_HILL_SLOPE 0.743, HEPG2TOX_R_SQUARED 0.718, PBLUC_HILL_SLOPE 1.63, PBLUC_R_SQUARED 0.591, read-out: LUCIFERASE INFECTION ASSAY - IC50): 2.24 µM
Cc1ccc(C)c(S(=O)(=O)N(Cc2nnc(-c3ccc(Cl)cc3)o2)c2cccc(C(F)(F)F)c2)c1	> 10	> 10	–
CCOC(=O)C1=C(C)NC(C)=C(C(=O)OCC)C1C(=O)OCC(=O)NC12CC3CC(CC(C3)C1)C2	> 10	–	IC50 (HEPG2TOX_HILL_SLOPE 2.54, HEPG2TOX_R_SQUARED 0.735, read-out: LUCIFERASE INFECTION ASSAY - IC50): > 10 µM
COc1cc(OC)cc(-c2cn3c(-c4ccc5c(c4)OCO5)cnc3cn2)c1	> 8.79	–	IC50 (HEPG2TOX_HILL_SLOPE 7.71, HEPG2TOX_R_SQUARED 0.876, PBLUC_HILL_SLOPE 4.45, PBLUC_R_SQUARED 0.518, read-out: LUCIFERASE INFECTION ASSAY - IC50): 5.54 µM
